# Assay results published in PMC11222147, “Host defence peptide plectasin targets bacterial cell wall precursor lipid II by a calcium-sensitive supramolecular mechanism” (Nature Microbiology, 2024).
# Like-named read-outs stand apart in the source and are kept apart here. Where a SMILES comes first, the peptide text is derived from it. Bridges are numbered along the chain shown (N, C = ends). Where no end group is shown, it is not given here.
# What was measured:
# S. simulans 22 = assay: MIC assays under standard conditions; type: cell-based, Staphylococcus simulans; settings: for Minimum inhibitory concentration, S. simulans / MIC: cation-adjusted MHB, 37 °C; for MIC: Staphylococcus simulans, 22
# Description: (§1) Plectasin and analogues were serially diluted in cation-adjusted Mueller–Hinton broth (MHB) in round-bottom polypropylene 96-well plates (50 µl per well). Selected bacterial strains were grown from glycerol stocks on blood agar plates. Individual colonies were inoculated in TSB and incubated at 37 °C while shaking until OD600 reached 0.5. Bacterial suspensions were then diluted 100 times in cation-adjusted MHB and distributed (50 μl per well) over the microplate containing the diluted plectasin solutions. Plates were covered by a gas-permeable adhesive membrane and incubated at 37 °C while shaking. MICs were determined by visual inspection after 16–20 h (Staphylococcus) or 20–24 h (Streptococcus). For Streptococcus strains, the broth was additionally supplemented with 5% lysed horse blood, and the microplates were incubated under 5% CO2 atmosphere. In the assays, we used the following strains: S. simulans, S. pneumoniae serotype 8, S. pneumoniae ATCC6305 and Streptococcus pyogenes M3.
# S. pneumoniae ATCC6305 = assay: MIC assays under standard conditions; type: cell-based, Streptococcus pneumoniae; settings: Supplementary Table 1, cation-adjusted MHB + 5% lysed horse blood, 5% CO2, 20–24 h
# Description: as §1
Compound,"Minimum inhibitory concentration, S. simulans (S. simulans 22; Supplementary Table 1, 16–20 h)","Minimum inhibitory concentration, S. pneumoniae ATCC6305 (S. pneumoniae ATCC6305)",also measured
"CSCC[C@@H]1NC(=O)[C@H](CC(=O)O)NC(=O)[C@H](CC(=O)O)NC(=O)[C@H](CCC(=O)O)NC(=O)[C@H](CC(=O)O)NC(=O)[C@H](Cc2c[nH]c3ccccc23)NC(=O)[C@@H]2CCCN2C(=O)CNC(=O)[C@H](CC(N)=O)NC(=O)[C@@H](NC(=O)CNC(=O)[C@H](Cc2ccccc2)NC(=O)CN)CSSC[C@@H]2NC(=O)[C@H](Cc3ccc(O)cc3)NC(=O)CNC(=O)CNC(=O)[C@H](CCCCN)NC(=O)[C@H](Cc3ccc(O)cc3)NC(=O)CNC(=O)[C@H](CCCCN)NC(=O)[C@H](CCCCN)NC(=O)[C@H](CO)NC(=O)[C@H](CCCCN)NC(=O)[C@@H]3CSSC[C@@H](C(=O)N[C@@H](Cc4ccc(O)cc4)C(=O)O)NC(=O)[C@H](CCCCN)NC(=O)[C@H](CSSC[C@H](NC(=O)[C@H](CCC(N)=O)NC1=O)C(=O)N[C@@H](Cc1c[nH]cn1)C(=O)N[C@@H](CC(N)=O)C(=O)N[C@@H](Cc1c[nH]cn1)C(=O)N3)NC(=O)[C@H](C(C)C)NC(=O)[C@H](Cc1ccccc1)NC(=O)CNC(=O)CNC(=O)[C@H](CCCCN)NC(=O)[C@H](C)NC2=O [I22K] (H-GFGCNGPWDEDDMQCHNHCKSKKGYKGGYCAKGGFVCKCY-OH; disulfide 4-30, 15-37, 19-39 (inferred); N-terminus and C-terminus assumed)",> 50 µg/mL,> 50 µg/mL,
"CC[C@H](C)[C@@H]1NC(=O)[C@H](CO)NC(=O)[C@H](CCCCN)NC(=O)[C@@H]2CSSC[C@@H](C(=O)N[C@@H](Cc3ccc(O)cc3)C(=O)O)NC(=O)[C@H](CCCCN)NC(=O)[C@@H]3CSSC[C@H](NC(=O)[C@H](CCC(N)=O)NC(=O)[C@H](CCSC)NC(=O)[C@H](CC(=O)O)NC(=O)[C@H](CC(=O)O)NC(=O)[C@H](CCC(=O)O)NC(=O)[C@H](CC(=O)O)NC(=O)[C@H](Cc4c[nH]c5ccccc45)NC(=O)[C@@H]4CCCN4C(=O)CNC(=O)[C@H](CC(N)=O)NC(=O)[C@@H](NC(=O)CNC(=O)[C@H](Cc4ccccc4)NC(=O)CN)CSSC[C@H](NC(=O)[C@H](Cc4ccc(O)cc4)NC(=O)CNC(=O)CNC(=O)[C@H](C)NC(=O)[C@H](Cc4ccc(O)cc4)NC(=O)CNC(=O)[C@H](CCCCN)NC1=O)C(=O)N[C@@H](C)C(=O)N[C@@H](CCCCN)C(=O)NCC(=O)NCC(=O)N[C@@H](Cc1ccccc1)C(=O)N[C@@H](C(C)C)C(=O)N3)C(=O)N[C@@H](Cc1c[nH]cn1)C(=O)N[C@@H](CC(N)=O)C(=O)N[C@@H](Cc1c[nH]cn1)C(=O)N2 [K26A] (H-GFGCNGPWDEDDMQCHNHCKSIKGYAGGYCAKGGFVCKCY-OH; disulfide 4-30, 15-37, 19-39 (inferred); N-terminus and C-terminus assumed)","3,13 μg/mL","3,13 μg/mL",reduction in activity vs plectasin (S. simulans 22; from MIC of Table 1): fivefold to tenfold
"CC[C@H](C)[C@@H]1NC(=O)[C@H](CO)NC(=O)[C@H](CCCCN)NC(=O)[C@@H]2CSSC[C@@H](C(=O)N[C@@H](Cc3ccc(O)cc3)C(=O)O)NC(=O)[C@H](CCCCN)NC(=O)[C@@H]3CSSC[C@H](NC(=O)[C@H](CCC(N)=O)NC(=O)[C@H](CCSC)NC(=O)[C@H](CC(=O)O)NC(=O)[C@H](CC(=O)O)NC(=O)[C@H](CCC(=O)O)NC(=O)[C@H](CC(=O)O)NC(=O)[C@H](Cc4c[nH]c5ccccc45)NC(=O)[C@@H]4CCCN4C(=O)CNC(=O)[C@H](CC(N)=O)NC(=O)[C@@H](NC(=O)CNC(=O)[C@H](Cc4ccccc4)NC(=O)CN)CSSC[C@H](NC(=O)[C@H](Cc4ccc(O)cc4)NC(=O)CNC(=O)CNC(=O)[C@H](CCCNC(=N)N)NC(=O)[C@H](Cc4ccc(O)cc4)NC(=O)CNC(=O)[C@H](CCCCN)NC1=O)C(=O)N[C@@H](C)C(=O)N[C@@H](CCCCN)C(=O)NCC(=O)NCC(=O)N[C@@H](Cc1ccccc1)C(=O)N[C@@H](C(C)C)C(=O)N3)C(=O)N[C@@H](Cc1c[nH]cn1)C(=O)N[C@@H](CC(N)=O)C(=O)N[C@@H](Cc1c[nH]cn1)C(=O)N2 [K26R] (H-GFGCNGPWDEDDMQCHNHCKSIKGYRGGYCAKGGFVCKCY-OH; disulfide 4-30, 15-37, 19-39 (inferred); N-terminus and C-terminus assumed)",≤ 0.78 µg/mL,"1,56 μg/mL",
"CN[C@H](CC(C)C)C(=O)N[C@H]1C(=O)N[C@@H](CC(N)=O)C(=O)N[C@H]2C(=O)N[C@H]3C(=O)N[C@H](C(=O)N[C@H](C(=O)O)c4cc(O)cc(O)c4-c4cc3ccc4O)[C@H](O)c3ccc(c(Cl)c3)Oc3cc2cc(c3O[C@@H]2O[C@H](CO)[C@@H](O)[C@H](O)[C@H]2O[C@H]2C[C@](C)(N)[C@H](O)[C@H](C)O2)Oc2ccc(cc2Cl)[C@H]1O [Vancomycin, reference compound]",,,"MIC (S. simulans 22; Supplementary Table 1, 16–20 h, read-out: Minimum inhibitory concentration, S. simulans): 0.78 µg/mL; MIC (S. simulans 22; standard conditions, visual inspection after 16–20 h, read-out: MIC): 0.78 µg/mL; MIC (S. pneumoniae ATCC6305; Streptococcus pneumoniae, ATCC6305, read-out: Minimum inhibitory concentration, S. pneumoniae ATCC6305): < 0.78 µg/mL"
"CC[C@H](C)[C@@H]1NC(=O)[C@H](CO)NC(=O)[C@H](CCCCN)NC(=O)[C@@H]2CSSC[C@@H](C(=O)N[C@@H](Cc3ccc(O)cc3)C(=O)O)NC(=O)[C@H](CCCCN)NC(=O)[C@@H]3CSSC[C@H](NC(=O)[C@H](CCC(N)=O)NC(=O)[C@H](CCSC)NC(=O)[C@H](CC(=O)O)NC(=O)[C@H](CC(=O)O)NC(=O)[C@H](CCC(=O)O)NC(=O)[C@H](CC(=O)O)NC(=O)[C@H](Cc4c[nH]c5ccccc45)NC(=O)[C@@H]4CCCN4C(=O)CNC(=O)[C@H](CC(N)=O)NC(=O)[C@@H](NC(=O)CNC(=O)[C@H](Cc4ccccc4)NC(=O)CN)CSSC[C@H](NC(=O)[C@H](Cc4ccc(O)cc4)NC(=O)CNC(=O)CNC(=O)[C@H](CCCCN)NC(=O)[C@H](Cc4ccccc4)NC(=O)CNC(=O)[C@H](CCCCN)NC1=O)C(=O)N[C@@H](C)C(=O)N[C@@H](CCCCN)C(=O)NCC(=O)NCC(=O)N[C@@H](Cc1ccccc1)C(=O)N[C@@H](C(C)C)C(=O)N3)C(=O)N[C@@H](Cc1c[nH]cn1)C(=O)N[C@@H](CC(N)=O)C(=O)N[C@@H](Cc1c[nH]cn1)C(=O)N2 [Y25F] (H-GFGCNGPWDEDDMQCHNHCKSIKGFKGGYCAKGGFVCKCY-OH; disulfide 4-30, 15-37, 19-39 (inferred); N-terminus and C-terminus assumed)","1,56 μg/mL","3,125 μg/mL",
"CC[C@H](C)[C@@H]1NC(=O)[C@H](CO)NC(=O)[C@H](CCCCN)NC(=O)[C@@H]2CSSC[C@@H](C(=O)N[C@@H](Cc3ccc(O)cc3)C(=O)O)NC(=O)[C@H](CCCCN)NC(=O)[C@@H]3CSSC[C@H](NC(=O)[C@H](CCC(N)=O)NC(=O)[C@H](CCSC)NC(=O)[C@H](CC(=O)O)NC(=O)[C@H](CC(=O)O)NC(=O)[C@H](CCC(=O)O)NC(=O)[C@H](CC(=O)O)NC(=O)[C@H](Cc4c[nH]c5ccccc45)NC(=O)[C@@H]4CCCN4C(=O)CNC(=O)[C@H](CC(N)=O)NC(=O)[C@@H](NC(=O)CNC(=O)[C@H](Cc4ccccc4)NC(=O)CN)CSSC[C@H](NC(=O)[C@H](Cc4ccc(O)cc4)NC(=O)CNC(=O)CNC(=O)[C@H](CCCCN)NC(=O)[C@H](CC(C)C)NC(=O)CNC(=O)[C@H](CCCCN)NC1=O)C(=O)N[C@@H](C)C(=O)N[C@@H](CCCCN)C(=O)NCC(=O)NCC(=O)N[C@@H](Cc1ccccc1)C(=O)N[C@@H](C(C)C)C(=O)N3)C(=O)N[C@@H](Cc1c[nH]cn1)C(=O)N[C@@H](CC(N)=O)C(=O)N[C@@H](Cc1c[nH]cn1)C(=O)N2 [Y25L] (H-GFGCNGPWDEDDMQCHNHCKSIKGLKGGYCAKGGFVCKCY-OH; disulfide 4-30, 15-37, 19-39 (inferred); N-terminus and C-terminus assumed)","3,13 μg/mL",,
"CC[C@H](C)[C@@H]1NC(=O)[C@H](CO)NC(=O)[C@H](CCCCN)NC(=O)[C@@H]2CSSC[C@@H](C(=O)N[C@@H](Cc3ccc(O)cc3)C(=O)O)NC(=O)[C@H](CCCCN)NC(=O)[C@@H]3CSSC[C@H](NC(=O)[C@H](CCC(N)=O)NC(=O)[C@H](CCSC)NC(=O)[C@H](CC(=O)O)NC(=O)[C@H](CC(=O)O)NC(=O)[C@H](CCC(=O)O)NC(=O)[C@H](CC(=O)O)NC(=O)[C@H](Cc4c[nH]c5ccccc45)NC(=O)[C@@H]4CCCN4C(=O)CNC(=O)[C@H](CC(N)=O)NC(=O)[C@@H](NC(=O)CNC(=O)[C@H](Cc4ccccc4)NC(=O)CN)CSSC[C@H](NC(=O)[C@H](Cc4ccc(O)cc4)NC(=O)CNC(=O)CNC(=O)[C@H](CCCCN)NC(=O)[C@H](C(C)C)NC(=O)CNC(=O)[C@H](CCCCN)NC1=O)C(=O)N[C@@H](C)C(=O)N[C@@H](CCCCN)C(=O)NCC(=O)NCC(=O)N[C@@H](Cc1ccccc1)C(=O)N[C@@H](C(C)C)C(=O)N3)C(=O)N[C@@H](Cc1c[nH]cn1)C(=O)N[C@@H](CC(N)=O)C(=O)N[C@@H](Cc1c[nH]cn1)C(=O)N2 [Y25V] (H-GFGCNGPWDEDDMQCHNHCKSIKGVKGGYCAKGGFVCKCY-OH; disulfide 4-30, 15-37, 19-39 (inferred); N-terminus and C-terminus assumed)","6,25 μg/mL",,
"nisin (ITSISLCTPGCKTGALMGCNMKTATCHCSIHVSK; not fully specified (some residues, bridges); also: lantibiotic nisin-A (thioether rings, dehydro residues) not placed; UniProt P13068 24-57, looked up) [reference compound]",,,MIC towards S. simulans as quoted in Extended Data Fig. 8 (S. simulans 22; legend of the permeabilization assays): 0.075 µM
